The values that follow come from patent US20150141381A1, “TETRACYCLINE COMPOUNDS HAVING TARGET THERAPEUTIC ACTIVITIES” (Paratek Pharmaceuticals, Inc., priority 2001, published 2015).

Where two headings read alike, the source gives them in different places.

Assay [1] concerns S. aureus RN450. In words: In Vitro Anti-Bacterial Activity Assay (MIC), gram positive. Type of assay: cell-based. The note with it: Staphylococcus aureus, RN450, 18 h.
Assay [2] relates to E. coli mL308 225. In words: In Vitro Anti-Bacterial Activity Assay (MIC), gram negative. Type of assay: cell-based. The settings on record: Escherichia coli, ML308225, 18 h.
Setting [3] is: MIC class, Table 3 (Continued), read-out: Gram+ activity.
Setting [4] is: MIC class, Table 3 (Continued), read-out: Gram− activity.
Where [5] appears, read: MIC class, Table 3, read-out: Antibiotic Activity Gram +.
Setting [6] is: MIC class, Table 3, read-out: Antibiotic Activity Gram −.
[7] abbreviates: gram positive bacteria, read-out: Antibiotic Activity Gram + (MIC).
[8] abbreviates: gram negative bacteria, read-out: Antibiotic Activity Gram − (MIC).

For the compound `CCOc1ccc(/C=C2\c3cccc(O)c3C(=O)C3=C(O)[C@]4(O)C(=O)C(C(N)=O)=C(O)[C@@H](N(C)C)[C@@H]4[C@@H](O)[C@@H]32)cc1`, the MIC in assay [1] (setting [3]) is less than 4 µg/mL; in assay [2] (setting [4]), greater than 4 µg/mL.
Take `CN(C)C1C(O)=C(C(N)=O)C(=O)[C@@]2(O)C(O)=C3C(=O)c4c(O)ccc(-c5ccc(CNCc6ccccc6)o5)c4C[C@H]3C[C@@H]12` (some centres unmarked) [LL]: the MIC in assay [1] (setting [5]) and in assay [2] (setting [6]) was less than 4 µg/mL throughout.
Take `CN(C)[C@@H]1C(O)=C(C(N)=O)C(=O)[C@@]2(O)C(O)=C3C(=O)c4c(O)ccc(-c5ccc(C(C)(C)C)cc5)c4C[C@H]3C[C@@H]12` [drawing 3426]: the MIC in assay [1] (setting [7]) and in assay [2] (setting [8]) was less than 4 µg/mL throughout.
In the case of `CN(C)CC#Cc1cc(N(C)C)c2c(c1O)C(=O)C1=C(O)[C@]3(O)C(=O)C(C(N)=O)=C(O)[C@@H](N(C)C)[C@@H]3C[C@@H]1C2`, the MIC in assay [1] (setting [3]) and in assay [2] (setting [4]) was greater than 4 µg/mL each time.
With `CCC1(C)CCN(Cc2cc(N(C)C)c3c(c2O)C(=O)C2=C(O)[C@]4(O)C(=O)C(C(N)=O)=C(O)[C@@H](N(C)C)[C@@H]4C[C@@H]2C3)CC1`, the MIC in assay [1] (setting [7]) and in assay [2] (setting [8]) was less than 4 µg/mL in each case.
On to `CN(C)[C@@H]1C(O)=C(C(N)=O)C(=O)[C@@]2(O)C(O)=C3C(=O)c4c(O)ccc(-c5cccc(NC(=O)c6ccno6)c5)c4C[C@H]3C[C@@H]12`, for which the figures for the MIC in assay [1] (setting [7]) and in assay [2] (setting [8]) were less than 4 µg/mL and greater than 4 µg/mL, respectively.
As for `C[C@H]1c2cccc(O)c2C(=O)C2=C(O)[C@]3(O)C(=O)C(C(N)=O)=C(O)[C@@H](N(C)C)[C@@H]3[C@@H](OC(=O)C34CC5CC(CC(C5)C3)C4)[C@@H]21` [T], the MIC in assay [1] (setting [5]) is less than 4 µg/mL; in assay [2] (setting [6]), greater than 4 µg/mL.
As to `CN(C)C1C(O)=C(C(N)=O)C(=O)[C@@]2(O)C(O)=C3C(=O)c4c(O)c(CNCC(C)(C)C)cc(CNCC(C)(C)C)c4C[C@H]3C[C@@H]12` (some centres unmarked) [MU], the MIC in assay [1] (setting [5]) and in assay [2] (setting [6]) was less than 4 µg/mL each time.
Consider `CN(C)[C@@H]1C(O)=C(C(N)=O)C(=O)[C@@]2(O)C(O)=C3C(=O)c4c(O)ccc(NC(=O)c5ccno5)c4C[C@H]3C[C@@H]12` [IM], for which the figures for the MIC in assay [1] (setting [5]) and in assay [2] (setting [6]) were less than 4 µg/mL and greater than 4 µg/mL, respectively.
Take `CN(C)c1cc(N2CCOCC2)c(O)c2c1C[C@H]1C[C@H]3[C@H](N(C)C)C(O)=C(C(N)=O)C(=O)[C@@]3(O)C(O)=C1C2=O`: the MIC in assay [1] (setting [7]) and in assay [2] (setting [8]) was greater than 4 µg/mL each time.
In the case of `CC#Cc1cc(N(C)C)c2c(c1O)C(=O)C1=C(O)[C@]3(O)C(=O)C(C(N)=O)=C(O)[C@@H](N(C)C)[C@@H]3C[C@@H]1C2`, the MIC in assay [1] (setting [3]) and in assay [2] (setting [4]) was greater than 4 µg/mL in each case.
Take `NC(=O)C1=C(O)C[C@@H]2C[C@@H]3Cc4ccc(CN5CCCCC5)c(O)c4C(=O)C3=C(O)[C@]2(O)C1=O`: the MIC in assay [1] (setting [7]) and in assay [2] (setting [8]) was greater than 4 µg/mL each time.
Consider `COC(=O)C#Cc1cc(N(C)C)c2c(c1O)C(=O)C1=C(O)[C@]3(O)C(=O)C(C(N)=O)=C(O)C(N(C)C)[C@@H]3C[C@@H]1C2` (some centres unmarked) [CY], for which the MIC in assay [1] (setting [5]) is less than 4 µg/mL; in assay [2] (setting [6]) it was greater than 4 µg/mL.
As to `CCCCOC1C(C(N)=O)=C(O)[C@@H](N(C)C)[C@@H]2[C@@H](O)[C@H]3C(=C(O)[C@]12O)C(=O)c1c(O)cccc1[C@@H]3C` (some centres unmarked), the MIC in assay [1] (setting [7]) and in assay [2] (setting [8]) was greater than 4 µg/mL in each case.
As for `CC(=O)Nc1ccc(C#Cc2ccc(O)c3c2C[C@H]2C[C@H]4[C@H](N(C)C)C(O)=C(C(N)=O)C(=O)[C@@]4(O)C(O)=C2C3=O)cc1` [CO], the MIC in assay [1] (setting [5]) is less than 4 µg/mL; in assay [2] (setting [6]), greater than 4 µg/mL.
In the same order, the values of `CN(C)C(=O)/C=C/c1ccc(O)c2c1C[C@H]1C[C@H]3[C@H](N(C)C)C(O)=C(C(N)=O)C(=O)[C@@]3(O)C(O)=C1C2=O` [AQ] are less than 4 µg/mL and less than 4 µg/mL.
As to `CN(C)[C@@H]1C(O)=C(C(N)=O)C(=O)[C@@]2(O)C(O)=C3C(=O)c4c(O)ccc(-c5ccc6c(c5)OCO6)c4C[C@H]3C[C@@H]12` [drawing 3479], the MIC in assay [1] (setting [7]) and in assay [2] (setting [8]) was less than 4 µg/mL each time.
As for `COc1ccc(CN(C)C)cc1-c1ccc(O)c2c1C[C@H]1C[C@H]3[C@H](N(C)C)C(O)=C(C(N)=O)C(=O)[C@@]3(O)C(O)=C1C2=O` [CJ], the MIC in assay [1] (setting [5]) and in assay [2] (setting [6]) was less than 4 µg/mL each time.
Turning to `CN(C)c1cc(CNCCc2ccccc2)c(O)c2c1C[C@H]1C[C@H]3C(N(C)C)C(O)=C(C(N)=O)C(=O)[C@@]3(O)C(O)=C1C2=O` (some centres unmarked) [EH], the MIC in assay [1] (setting [5]) and in assay [2] (setting [6]) was less than 4 µg/mL in each case.
Consider `CC(=O)Nc1ccc2c(c1O)C(=O)C1=C(O)[C@]3(O)C(=O)C(C(N)=O)=C(O)[C@@H](N(C)C)[C@@H]3C[C@@H]1C2`, for which the MIC is less than 4 µg/mL in assay [1] (setting [7]) and greater than 4 µg/mL in assay [2] (setting [8]).
For the compound `CN(C)c1cc(CNC(=O)CC(F)(F)F)c(O)c2c1C[C@H]1C[C@H]3[C@H](N(C)C)C(O)=C(C(N)=O)C(=O)[C@@]3(O)C(O)=C1C2=O`, the MIC in assay [1] (setting [7]) and in assay [2] (setting [8]) was less than 4 µg/mL each time.
Turning to `CN(C)[C@@H]1C(O)=C(C(N)=O)C(=O)[C@@]2(O)C(O)=C3C(=O)c4c(O)ccc(-c5ncccn5)c4C[C@H]3C[C@@H]12`, the MIC in assay [1] (setting [7]) and in assay [2] (setting [8]) was less than 4 µg/mL in each case.
For the compound `CN(C)Cc1ccc(-c2ccc(O)c3c2C[C@H]2C[C@H]4[C@@H](N(C)C)C(O)=C(C(N)=O)C(=O)[C@@]4(O)C(O)=C2C3=O)c2ccccc12` [K], the MIC in assay [1] (setting [5]) and in assay [2] (setting [6]) was less than 4 µg/mL each time.
With `CCc1cc(CN2CCC(F)(F)CC2)c(O)c2c1C[C@H]1C[C@H]3[C@H](N(C)C)C(O)=C(C(N)=O)C(=O)[C@@]3(O)C(O)=C1C2=O` [drawing 3695], the MIC in assay [1] (setting [7]) and in assay [2] (setting [8]) was less than 4 µg/mL throughout.
Take `CN(C)c1cc(CN2CCC(C(F)(F)F)CC2)c(O)c2c1C[C@H]1C[C@H]3[C@H](N(C)C)C(O)=C(C(N)=O)C(=O)[C@@]3(O)C(O)=C1C2=O`: the MIC in assay [1] (setting [7]) and in assay [2] (setting [8]) was less than 4 µg/mL throughout.
As to `CN(C)[C@@H]1C(O)=C(C(N)=O)C(=O)[C@@]2(O)C(O)=C3C(=O)c4c(O)c(CN5CCCCC5)cc(-c5ccccn5)c4C[C@H]3C[C@@H]12`, the MIC in assay [1] (setting [7]) was less than 4 µg/mL; in assay [2] (setting [8]), greater than 4 µg/mL.
Consider `CN(C)CC(=O)NCc1ccc(-c2ccc(O)c3c2C[C@H]2C[C@H]4[C@H](N(C)C)C(O)=C(C(N)=O)C(=O)[C@@]4(O)C(O)=C2C3=O)cc1`, for which the MIC in assay [1] (setting [7]) was less than 4 µg/mL; in assay [2] (setting [8]), greater than 4 µg/mL.
Turning to `CCCN(CCC)Cc1ccc(-c2ccc(O)c3c2C[C@H]2C[C@H]4[C@H](N(C)C)C(O)=C(C(N)=O)C(=O)[C@@]4(O)C(O)=C2C3=O)c2ccccc12`, the MIC in assay [1] (setting [7]) and in assay [2] (setting [8]) was less than 4 µg/mL each time.
Turning to `CN(C)c1cc(C#Cc2ccc(F)cc2)c(O)c2c1C[C@H]1C[C@H]3[C@H](N(C)C)C(O)=C(C(N)=O)C(=O)[C@@]3(O)C(O)=C1C2=O`, the MIC in assay [1] (setting [3]) and in assay [2] (setting [4]) was less than 4 µg/mL in each case.
On to `CN(C)c1cc(-c2ccoc2)c(O)c2c1C[C@H]1C[C@H]3[C@H](N(C)C)C(O)=C(C(N)=O)C(=O)[C@@]3(O)C(O)=C1C2=O` [KU], for which the values for the MIC in assay [1] (setting [5]) and in assay [2] (setting [6]) were less than 4 µg/mL and greater than 4 µg/mL, respectively.
As for `CN(C)c1ccc(NC(=O)NCc2cc(N(C)C)c3c(c2O)C(=O)C2=C(O)[C@]4(O)C(=O)C(C(N)=O)=C(O)[C@@H](N(C)C)[C@@H]4C[C@@H]2C3)cc1` [FN], the MIC is less than 4 µg/mL in assay [1] (setting [5]) and greater than 4 µg/mL in assay [2] (setting [6]).
